Assays:
[1] = test system: brain receptors of the NMDA type; assay: Complementary examination of neurotoxic effects of xenon and N2O versus air on NMDA-type brain receptors (FIG. 4); type: in vivo
Experimental: Based on this observation, complementary examinations were carried out in order to determine the neurotoxic effects of the xenon and of the nitrous oxide (N2O), at various amounts, compared to air, on brain receptors of the NMDA type.

[2] = test system: glutamergic receptors for N-methyl-D-aspartate, NMDA; conditions: in vitro, literature (Franks et al.; Jevtovic-Todorovic et al.; Yamakura and Harris); cited from earlier work
[3] = test system: transient focal cerebral ischemia by middle cerebral artery occlusion (MCAO); assay: Transient focal cerebral ischemia by middle cerebral artery occlusion (MCAO) in rats, infarct volume after gas inhalation; type: in vivo; conditions: rat MCAO, compared to air (mixture No. 1); for post-ischemic volume of cortical infarction: FIG. 3b; for post-ischemic volume of striatal infarction: FIG. 3c; for post-ischemic volume of oedema: FIG. 3d
Experimental: On day 1, focal ischemia was induced in each of the rats by middle cerebral artery occlusion (MCAO), for a period of 1 h 30 minutes.
The transient focal cerebral ischemia by MCAO is obtained conventionally by introducing a flexible nylon thread 1, represented diagrammatically in FIG. 1 (length 6.5 mm, diameter 180 μm), a portion 2 of the proximal end of which has a diameter greater than that of the thread (length 3 mm, diameter 380 μm), into the vascular system of the rat, as far as the region of the ipsilateral hemisphere so as to cause an embolism therein, i.e. an ischemia.
Next, the rats are reperfused for 10 to 20 minutes, and are then made to inhale several mixtures of gases, namely: • mixture No. 1: air (control) • mixture No. 2: N2O (75% vol), the remainder being oxygen (25%) • mixture No. 3: xenon (50% vol), the remainder being oxygen (20 to 25%) and nitrogen (30 to 25%), respectively • mixture No. 4: xenon (75% vol), the remainder being oxygen (25%).
On day 2, i.e. 24 hours after reperfusion, the rats are killed, the brains are recovered and frozen, and thin sections 40 μm thick are cut and then stained with cresyl violet, as shown in FIG. 5.
The volume of neuronal death is calculated, from the sections obtained after staining, in a conventional manner using an appropriate, commercially available conventional program.
In fact, as shown diagrammatically in FIG. 2, the cerebral ischemia engenders, in general, in 24 hours, an infarction in the region which has been subjected to ischemia (penumbra), leading to neuronal death in the brain cells present in a considerable portion of this region.

Row | Structure (SMILES) | neuroprotection, comparison between doses ([1]; N2O at 75% by volume compared to N2O at 50%) | volume of deteriorated NMDA receptors ([1]; in vivo) | behaviour at NMDA receptors [2] | post-ischemic volume of cortical infarction [3] | post-ischemic volume of striatal infarction [3] | post-ischemic volume of oedema [3] | volume of deteriorated NMDA receptors ([1]; dose of 50% or 75% by volume, compared to control (air), FIG. 4) | neuroprotection, comparison between doses ([1]; xenon at 50% by volume compared to xenon at 75%)
1 | [N-]=[N+]=O [N2O, nitrous oxide] | more neuroprotective | smaller volume | low-affinity antagonists | decrease | decrease | decrease | – | –
2 | [Xe] [xenon] | – | – | low-affinity antagonists | decrease | decrease | decrease | smaller volume | more neuroprotective
